# Assay results: patent publication US4087540A, “Octahydro-N-[(trichloromethyl)thio]-naphthalenedicarboximides” (Sterling Drug Inc., priority 1977, dated 1978)
# Experiments:
# [1] = cited from earlier work
# [2] = test system: fungus; experiment: fungicidal activity (general); details: for fungicidal activity: in words
# Text: (§1) In order to find a fungicide with high solubility in petroleum hydrocarbons, numerous N-trichloromethylthio compounds have been synthesized and tested for activity and solubility. […] Rather, activity is associated with certain structural features.
# [3] = format: physicochemical; details: in words
# Text: as §1
# [4] = test system: Staphylococcus aureus; experiment: minimum inhibitory concentration against Staphylococcus aureus; format: cell-based; details: for Minimum Inhibitory Concentration (%): microorganism 1, Staphylococcus aureus
# Text: (§2) These properties appear to be associated with the octahydronaphthalene structure of the compounds. Thus when the anhydride VIII (Z=O) was converted to the corresponding N-[(trichloromethyl)thio]-imide (VIII, Z=N--S--CCl3) the surprising observation was made that the cyclized compound IC has about five times the fungicidal activity, and against staphylococcus aureus about 100 times the activity, of the uncyclized compound VIII (Z=N--S--CCl3) and that the latter compound had only one-fifth the solubility of compound IC. The solubility data and minimum inhibitory concentration against several microorganisms for these two compounds as well as the known fungicide Captan are presented in the following table.
# [5] = test system: Penicillium glaucum; experiment: minimum inhibitory concentration against Penicillium glaucum; format: cell-based; details: microorganism 2, Penicillium glaucum
# Text: as §2
# [6] = test system: Aspergillus niger; experiment: minimum inhibitory concentration against Aspergillus niger; format: cell-based; details: microorganism 3, Aspergillus niger
# Text: as §2
# [7] = test system: Sclerophoma pityophila; experiment: minimum inhibitory concentration against Sclerophoma pityophila; format: cell-based; details: microorganism 4, Sclerophoma pityophila
# Text: as §2
# [8] = test system: Pullularia pullulans; experiment: minimum inhibitory concentration against Pullularia pullulans; format: cell-based; details: microorganism 5, Pullularia pullulans
# Text: as §2
# [9] = test system: Saccharomyces cerevisiac; experiment: minimum inhibitory concentration against Saccharomyces cerevisiac; format: cell-based; details: microorganism 6, Saccharomyces cerevisiac
# Text: as §2
# [10] = test system: Candida albicans; experiment: minimum inhibitory concentration against Candida albicans; format: cell-based; details: microorganism 7, Candida albicans
# Text: as §2
# [11] = solubility in mineral spirits; format: physicochemical; details: VIII (Z=N--S--CCl3) vs IC
# Text: as §2
# [12] = test system: blue discoloration; details: E. Hoffman and A. Saracz; cited from earlier work
# [13] = test system: fungus; details: cited from earlier work; for properties as fungicidal additives to paints: Fette, Seifen, Anstrichmittel 1966
# [14] = B. A. Richardson; cited from earlier work
structure (smiles),measurement,setting,value
O=C1C2CCCCC2C(=O)N1SC(Cl)(Cl)Cl (centres unmarked) [IV],solubility in petroleum ether,[1],0.3%
"CC1(C)C2CC3C(=CCC4C(=O)N(SC(Cl)(Cl)Cl)C(=O)C43)C1C2 (centres unmarked) [IB, 1,2,3,4,4a,5,6,7-octahydro-2,2-dimethyl-N-[(trichloromethyl)thio]-1,3-methanonaphthalene-5,6-dicarboximide]",fungicidal activity,[2],excellent fungicidal activity
same,solubility in petroleum hydrocarbons,[3],good solubility in petroleum hydrocarbons
"CC1(C)CCCC2=C1CC1C(=O)N(SC(Cl)(Cl)Cl)C(=O)C1C2 (centres unmarked) [IC, 1,2,3,4,5,6,7,8-octahydro-5,5-dimethyl-N-[(trichloromethyl)thio]-2,3-naphthalenedicarboximide]",activity against staphylococcus aureus relative to uncyclized compound VIII (Z=N--S--CCl3),[4]; IC vs VIII,about 100 times
same,Minimum Inhibitory Concentration (%),[4],0.01%
same,Minimum Inhibitory Concentration (%),[5],0.001%
same,Minimum Inhibitory Concentration (%),[6],0.01%
same,Minimum Inhibitory Concentration (%),[7],0.001%
same,Minimum Inhibitory Concentration (%),[8],0.001%
same,Minimum Inhibitory Concentration (%),[9],0.001%
same,Minimum Inhibitory Concentration (%),[10],0.001%
same,fungicidal activity relative to uncyclized compound VIII (Z=N--S--CCl3),[2]; IC vs VIII,about five
same,fungicidal activity,[2],excellent fungicidal activity
same,solubility in petroleum hydrocarbons,[3],good solubility in petroleum hydrocarbons
CC(C)=CCCC1=CCC2C(=O)N(SC(Cl)(Cl)Cl)C(=O)C2C1 (centres unmarked) [VIII],solubility relative to compound IC,[11],one-fifth
same,Minimum Inhibitory Concentration (%),[4],1%
same,Minimum Inhibitory Concentration (%),[5],0.005%
same,Minimum Inhibitory Concentration (%),[6],0.01%
same,Minimum Inhibitory Concentration (%),[7],0.005%
same,Minimum Inhibitory Concentration (%),[8],0.005%
same,Minimum Inhibitory Concentration (%),[9],0.005%
same,Minimum Inhibitory Concentration (%),[10],0.01%
O=C1c2ccccc2C(=O)N1SC(Cl)(Cl)Cl [III],sufficiency of 1% to prevent blue discoloration,[12],insufficient to prevent blue discoloration
CCCCCCCCCCCCCCCCC1CC(=O)N(SC(Cl)(Cl)Cl)C1=O (centres unmarked),fungicidal activity,[2],inactive
CC12CCC(C(=O)N(SC(Cl)(Cl)Cl)C1=O)C2(C)C (centres unmarked),fungicidal activity,[2],inactive
O=C1C2C3c4ccccc4C(c4ccccc43)C2C(=O)N1SC(Cl)(Cl)Cl (centres unmarked),fungicidal activity,[2],inactive
"CC1=C2CCC(C)CC2C2C(=O)N(SC(Cl)(Cl)Cl)C(=O)C2C1 (centres unmarked) [IA, 1,2,3,5,6,7,8,8a-octahydro-4,7-dimethyl-N-[(trichloromethyl)-thio]-1,2-naphthalenedicarboximide]",fungicidal activity,[2],excellent fungicidal activity
same,solubility in petroleum hydrocarbons,[3],good solubility in petroleum hydrocarbons
O=C1Cc2ccccc2C(=O)N1SC(Cl)(Cl)Cl,fungicidal activity,[2],inactive
O=C1c2ccccc2C(=O)N1SC(F)(Cl)Cl [V],properties as fungicidal additives to paints,[13],useful properties
O=C1C2CC=CCC2C(=O)N1SC(Cl)(Cl)Cl (centres unmarked) [Captan],Minimum Inhibitory Concentration (%),[4],0.05%
same,Minimum Inhibitory Concentration (%),[5],0.01%
same,Minimum Inhibitory Concentration (%),[6],0.05%
same,Minimum Inhibitory Concentration (%),[8],0.005%
same,Minimum Inhibitory Concentration (%),[10],0.01%
same,fungicidal effectiveness in paints,"[13]; owing to its low solubility in paints, B. A. Richardson",practically ineffective
same,solubility in paints,[14],low solubility
CN(C)S(=O)(=O)N(SC(F)(Cl)Cl)c1ccccc1 [VI],properties as fungicidal additives to paints,[13],useful properties
